These are literature values, as cited in patent US11147801B2, “Methods of use for trisubstituted benzotriazole derivatives as dihydroorotate oxygenase inhibitors” (Aurigene Discovery Technologies Limited, priority 2017, dated 2021).

This data set deals with L1210 murine leukemia. The following applies: cited from earlier work.

Consider `Cc1c(-c2ccc(-c3ccccc3F)cc2)nc2ccc(F)cc2c1C(=O)O` [Brequinar, 6-Fluoro-2-(2′-fluoro[1,1′-biphenyl]-4-yl)-3-methyl-4-quinolinecarboxylic acid], for which the Anticancer activity entry is listed as “exhibits an anticancer activity”.
